The values that follow come from US6022893A, “Hydroxamic acid derivatives” (ONO Pharmaceutical Co., Ltd., priority 1995, dated 2000).

Test [1] addresses T1, gelatinase A (Homo sapiens, UniProt P08253).
T1 construct: endogenous in cells; host or cells: human normal skin dermal fibroblasts (HNDF); progelatinase A purified from them
T1 sequence (P08253 110-660): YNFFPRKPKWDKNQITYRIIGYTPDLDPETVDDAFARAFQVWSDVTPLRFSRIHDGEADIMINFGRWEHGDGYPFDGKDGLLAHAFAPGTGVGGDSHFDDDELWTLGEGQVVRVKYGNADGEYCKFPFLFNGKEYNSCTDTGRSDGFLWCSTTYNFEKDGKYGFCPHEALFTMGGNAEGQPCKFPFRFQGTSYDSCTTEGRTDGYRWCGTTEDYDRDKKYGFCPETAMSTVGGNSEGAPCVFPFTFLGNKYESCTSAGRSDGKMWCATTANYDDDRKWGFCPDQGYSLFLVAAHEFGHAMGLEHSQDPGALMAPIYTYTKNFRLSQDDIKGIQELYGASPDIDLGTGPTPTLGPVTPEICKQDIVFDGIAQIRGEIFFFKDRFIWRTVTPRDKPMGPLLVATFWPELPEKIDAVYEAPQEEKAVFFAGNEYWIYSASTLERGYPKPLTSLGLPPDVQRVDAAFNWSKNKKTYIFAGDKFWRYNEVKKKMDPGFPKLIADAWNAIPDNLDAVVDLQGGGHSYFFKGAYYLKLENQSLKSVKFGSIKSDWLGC
Put plainly: Inhibitory activity against gelatinase A (synthetic substrate MOCAc-Pro-Leu-Gly-Leu-A2 pr(Dnp)-Ala-Arg-NH2). Format: biochemical. The conditions noted are these: final 13.5 μM, incubated 20 minutes at 37° C., activated gelatinase A. As to the method:
(§1) The potency of inhibitory activity against each matrix metalloproteinase is confirmed as below. The IC50 value for inhibition of gelatinase A activity is determined as follows.
(§2) (1) Inhibitory activity against gelatinase A
(§3) Progelatinase A (7 μl; in assay buffer (90 μl )) was purified from human normal skin dermal fibroblasts (HNDF). It was activated by the addition of 10 mM of p-aminophenylmercuric acetate (APMA) (10 μl) for 1 hour at 37° C.
Alternatively the inhibitory activity of the test compound was measured by using the synthetic substrate (MOCAc-Pro-Leu-Gly-Leu-A2 pr(Dnp)-Ala-Arg-NH2). The substrate solution (890 μl; the final concentration was 13.5 μM) was mixed with various concentrations of the test compound or dimethylsulfoxide ([…]) for 5 minutes at 37° C. The activated gelatinase A (7 μl/tube, 100 μl) was added to the reaction mixture and further incubated for 20 minutes at 37° C. 0.1 M sodium acetate buffer (2 ml; pH4.0) was added into the mixture. The IC50 was determined by measuring the fluorescent intensity (Ex=328 nm, and Em=393 nm) in this solution. The results are shown in Table 24 (Example number 2(4) and 3(2)).

The target in test [2] is T1, gelatinase A. Put plainly: Inhibitory activity against gelatinase A (FITC-labeled gelatin substrate). Format: biochemical. The conditions noted are these: incubated 2 hours at 37° C., APMA-activated progelatinase A from human normal skin dermal fibroblasts. On the procedure:
as §1, §2, §3
The solution of activated gelatinase A (7 μl tube, 98μl) was mixed with various concentrations of the test compound or dimethylsulfoxide (2 μl) and gelatin (100 μl) labeled with 0.05% fluorescein isothiocyanate (FITC) and incubated for 2 hours at 37° C. The reaction was terminated by the addition of 0.1 M Tris-HCI (pH9.5) containing 94.7% ethanol (750 μl). The mixture was stirred and then allowed to stand for 30 minutes at 0° C. The mixture was centrifuged for 30 minutes at 900×g. The IC50 was determined by measuring the fluorescent intensity in the supernatant (Ex=495 nm, and Em=520 nm). The results are shown in Table 24 (Example number 2 and 2(3)).

On to `C[C@@H](NS(=O)(=O)c1ccc(NC(=O)c2cccs2)cc1)C(=O)NO` [Example 3(2)], for which half-maximal inhibition in test [1] (IC50) required 0.23 nM.
In the case of `CCCCCc1ccc(C(=O)Nc2ccc(S(=O)(=O)N[C@H](Cc3ccccc3)C(=O)NO)cc2)cc1` [Example 2(3), N-Hydroxy-N-[N'-[[4-(4-pentylbenzoylamino)phenyl]sulfonyl]-D-phenylalanyl]amide], the IC50 in test [2] is 1 nM.
As to `Cc1ccc(C(=O)Nc2ccc(S(=O)(=O)N[C@H](Cc3c[nH]c4ccccc34)C(=O)NO)cc2)cc1` [Example 2(4), N-Hydroxy-N-[N'-[[4-(p-toluoylamino)phenyl]sulfonyl]-D-tryptophyl]amide], 0.61 nM corresponded to half-maximal inhibition in test [1] (IC50).
In turn, `Cc1ccc(C(=O)Nc2ccc(S(=O)(=O)NCC(=O)NO)cc2)cc1` [Example 2, N N-Hydroxy-N-[N'-[[4-(p-toluoylamino)phenyl]sulfonyl]glycyl]amide] gave an IC50 in test [2] of 1.7 nM.
